The source of these data is article PMC7866984, “Molecular Structure, In Vitro Anticancer Study and Molecular Docking of New Phosphate Derivatives of Betulin” (Molecules, 2021).

Like-named read-outs stand apart in the source and are kept apart here.

The term IC50 denotes the concentration at which inhibition is half-maximal. By melting point is commonly meant the temperature of the solid-liquid transition.

Data set [1] relates to glioblastoma (SNB-19) cells. The following applies: cited from earlier work.
In data set [2] the test system is amelanotic melanoma (C-32) cells. The following applies: cited from earlier work.
Data set [3] deals with breast cancer T47D cells. The following applies: cited from earlier work.
Data set [4] concerns BAX/BCL-2 mRNA in SNB-19 and C-32 cells. The data set is described as follows: qRT-PCR BAX/BCL-2 ratio. It counts as cell-based, human. The following applies: 24 h, half of IC50. The protocol:
(§1) In our work, we assessed the influence of the tested compounds on the expression of selected genes related to apoptosis. […] We examined their influence on the transcriptional activity of genes encoding a proliferation marker (histone H3), a cell cycle regulator (p53), and proteins related to the mitochondrial apoptosis pathway (BCL-2 and BAX). The study was performed after 24-h exposure of the cultured cells to the test compounds (half of IC50).
(§2) The influence of tested compounds on the transcriptional activity of cells of the genes H3, TP53, BCL-2, and BAX was investigated. Assays were performed by real-time qRT-PCR on an Opticon TM DNA Engine (MJ Research, USA) using the QuantTect® SYBR® Green qRT-PCR Kit (Qiagen, Valencia, […]). Cells were exposed to compound 7a and 7b for 24 h at a concentration equal to half of IC50 for appropriate cell line. For the reference compound, cisplatin, concentrations were 0.8 µg/mL (SNB-19 line) and 0.6 µg/mL (C-32 line). RNA extraction was performed on spin columns using the Quick RNATM MiniPrep kit (Zymo Research, Irvine, CA, USA). RNA extracts were assessed qualitatively and quantitatively. Total RNA integrity was checked electrophoretically on a 1.2% agarose gel with ethidium bromide. The amount and purity of total RNA in the extracts were determined spectrophotometrically with the HP8452A spectrophotometer (Hewlett Packard, Waldbronn, Germany).

Data set [5] concerns breast cancer MDA-MB-231 cells. The data set is described as follows: WST-1 cell viability assay, MDA-MB-231. Type of data set: cell-based, human. The following applies: Homo sapiens, MDA-MB-231, 72 h, read-out: IC50 ± SD, MDA-MB-231. The protocol:
(§3) Evaluation of the effect of new betulin derivatives on the viability of the cultured cells was performed using the WST-1(water soluble tetrazolium salt) assay. Betulin 1 and cisplatin were used as the reference compounds.
(§4) The synthesized compounds and references were tested for cytotoxic activity in vitro against human cancer cell lines such as amelanotic melanoma (C-32, ATCC, Rockville, MD, USA), glioblastoma (SNB-19, DSMZ, Braunschweig, Germany), and breast cancer (T47D, and MDA-MB-231, ATCC, Rockville, MD, USA). Cell cultures were maintained using DMEM (Lonza, Basel, Switzerland) supplemented with 10% fetal bovine serum (FBS) (Biological Industries Cromwell, CT, USA) and penicillin (10,000 U/mL) –streptomycin (10 mg/mL) mix (Lonza, Basel, Switzerland).
(§5) Cultures were performed in 96-well plates (Nunc Thermo Fisher Scientific, Waltham, MA, USA). Cells were seeded at 5 × 10^4/well and incubated for 24 h (at 37 °C, 5% CO2, constant humidity). Then, the medium was replaced with a fresh one with the addition of test compounds in the concentration: 25; 12.5; 6.25; 3.12; 1.56; 0.78; 0.39; 0 µg/mL and incubated again for a further 72 h. After this time, the WST-1 test (Roche Molecular Biochemicals, Mannheim, Germany) was performed to assess the metabolic activity of the cells. The principle of the WST-1 colorimetric test is based on the ability of live cells to decompose bright red tetrazole salts of WST-1 to dark red formazan. The reaction is mediated by mitochondrial dehydrogenases and correlates with the number of cells and their metabolic activity. The absorbance was measured at λ = 450 nm with a UVM340 microplate reader (Biogenet, Józefów, Poland). Results were expressed as a mean value of at least three independent experiments performed in triplicate.

The subject of data set [6] is breast cancer T47D cells. The data set can be described thus: WST-1 cell viability assay, T47D. The following applies: Homo sapiens, T47D, 72 h, read-out: IC50 ± SD, T47D. It counts as cell-based, human. The protocol:
as §3, §4, §5
On the technique in general: Tetrazolium assays rely on reduction of a dye to a coloured formazan, in cell work by metabolically active cells.

Data set [7] has as its system histone H3 mRNA in SNB-19 and C-32 cells. The data set is described as follows: qRT-PCR expression of H3. The settings on record: 24 h, half of IC50. It counts as cell-based, human. The protocol: as §1, §2
In data set [8] the test system is amelanotic melanoma (C-32) cells. The data set can be described thus: WST-1 cell viability assay, C-32. It counts as cell-based, human. The following applies: WST-1, 72 h, read-out: IC50 ± SD, C-32. The method, then:
as §3, §4, §5

Data set [9] can be described thus: RP-TLC experimental lipophilicity. Type of data set: physicochemical. The following applies: for RM0: acetone/Tris buffer pH 7.4, extrapolated to zero acetone; for -b: slope of regression plot RM = RM0 + bC. The source says:
Lipophilicity is an important physicochemical parameter related to the biological activity of compounds. This descriptor, contained in Lipiński’s rule of five, concerns the transport of a compound through the biological membrane system and the formation of a compound–receptor complex. To assess the lipophilic nature of triterpenoids 3–5, 6a–6e, and 7a–7e, the reverse phase chromatography (RP-TLC) method was used (chromatographic procedure by RP-TLC is included in the Supplementary Materials). The theoretical characteristics of the chromatographic parameters (RM0, log PTLC) of the tested derivatives were also performed. […]
Chromatographic procedure by RP-TLC
The experimental lipophilicity parameters was determined using reversed-phase thin-layer chromatography (RP-TLC). The stationary phase was an aluminium backed silica gel RP-18 F254 S plates (Merck, Darmstadt, Germany). Chloroform solutions of reference compounds […]
(acetanilide, 4-bromoacetophenone, benzophenone, anthracene, DDT) and triterpenes 3-5, 6a-6e and 7a-7e were spotted on to the plates in the amount of 2 µL. The chromatograms were performed in triplicate for each compound. The chromatographic chambers were filled of mobile phases consisting of a mixture of acetone (POCh, Gliwice, Poland) and aqueous solution of buffer Tris [(tris-hydroxymethyl)aminomethane] (Fluka, Loughborough, 0.2 M, pH 7.4). The percent acetone volume was varied within the range of 90-60%, in 5% increments. The spots of compounds were visualized by spraying the plates with 10% ethanolic solution of sulphuric acid (VI) and heating for 3 min at 110°C [60]]. The RM values were calculated by the equation RM = log (1/Rf-1) on the basis of average Rf values. The RM0 parameters were obtained by extrapolating on the acetone content to zero, according to the equation RM = RM0 + bC (C – the percentage concentration of acetone in the mobile phase, b – the slope of the regression plot).
The experimental lipophilicity as log PTLC for triterpenes 3-5, 6a-6e and 7a-7e was calculated […]
obtained on the correlation between the literature log Plit values and the experimental RM0 values […]
Table S5. The theoretical values of lipophilicity for tested compounds 3-5, 6a-6e and 7a- […]
Table S6. The correlation matrix for theoretically obtained lipophilicity parameters of compounds 3-5, 6a-6e and 7a-7e. […]

Data set [10] has as its system glioblastoma (SNB-19) cells. The data set can be described thus: WST-1 cell viability assay, SNB-19. It counts as cell-based, human. The following applies: WST-1, 72 h, read-out: IC50 ± SD, SNB-19. The protocol: as §3, §4, §5
Data set [11] deals with TP53 mRNA in SNB-19 and C-32 cells. The data set is described as follows: qRT-PCR expression of TP53. The settings on record: 24 h, half of IC50. It counts as cell-based, human. The method, then: as §1, §2
(Quantitative PCR measures a nucleic acid by following its amplification.)

For the compound `C#CC(=O)OC[C@]12CC[C@@H](C(=C)C)[C@@H]1[C@H]1CC[C@@H]3[C@@]4(C)CC[C@H](O)C(C)(C)[C@@H]4CC[C@@]3(C)[C@]1(C)CC2` [28-O-propynoylbetulin], the figures for the IC50 (in data set [1]; in data set [2]; in the data set with breast cancer T47D cells [3]) were 4200 nM, 16700 nM and 111000 nM, respectively.

The compound `C#CC(=O)OC[C@]12CC[C@@H](C(=C)COP(=O)(OCC)OCC)C1C1CCC3[C@@]4(C)CC[C@H](O)C(C)(C)C4CC[C@@]3(C)[C@]1(C)CC2` (some centres unmarked) [Compound 7a, 30-Diethoxyphosphoryloxy-28-propynoylbetulin] came in with a melting point of 177 to 180 °C. In addition, the “mRNA copy number BAX to BCL-2 ratio” value in data set [4] is “increased the mRNA copy number to BAX and BCL-2 ratio”. Also, the IC50 in [5] was 6200 ± 220 nM. The IC50 in the data set on breast cancer T47D cells [6] came to 2610 ± 420 nM. Also, the “number of mRNA copies of histone H3 gene vs control” value in [7] is given as “reduced the number of mRNA copies of the histone H3 gene”. Further, the IC50 in [8] (Homo sapiens, C32, 72 h) amounted to 2150 ± 220 nM. Moreover, the RM0 in data set [9] (RP-TLC) is 5.318. Moreover, in [9] (RP-TLC, from RM0 by calibration equation), the logPTLC came to 6.937. Also, the “-b” value in data set [9] is 0.062. Also, the IC50 in data set [10] (Homo sapiens, SNB-19, 72 h) was determined as 910 ± 90 nM. In data set [11], the “number of mRNA copies of TP53” value is “increase the number of mRNA copies of TP53”.

Consider `C=C(COP(=O)(OCC)OCC)[C@@H]1CC[C@]2(COC(=O)C#CC)CC[C@]3(C)C(CCC4[C@@]5(C)CC[C@H](O)C(C)(C)C5CC[C@]43C)C12` (some centres unmarked) [Compound 7b, 28-(2-Butynoyl)-30-diethoxyphosphoryloxybetulin], for which the melting point was 133 to 136 °C. In addition, the “mRNA copy number BAX to BCL-2 ratio” value in data set [4] was “increased the mRNA copy number to BAX and BCL-2 ratio”. In [5], the IC50 amounted to 4930 ± 440 nM. The IC50 in the data set with breast cancer T47D cells [6] was found to be 15400 ± 510 nM. Further, the “number of mRNA copies of histone H3 gene vs control” value in data set [7] is recorded as “reduced the number of mRNA copies of the histone H3 gene”. In [8] (Homo sapiens, C32, 72 h), the IC50 is 760 nM. The IC50 in data set [8] stood at 800 ± 30 nM. Moreover, the RM0 in data set [9] (RP-TLC) is listed as 5.431. In data set [9], the “-b” value was 0.063. In addition, the IC50 in [10] (Homo sapiens, SNB-19, 72 h) is 800 nM. Further, in data set [10], the IC50 came to 760 ± 140 nM. Moreover, the “number of mRNA copies of TP53” value in [11] was “increase the number of mRNA copies of TP53”.
